# According to patent publication US20140227335A1 (priority 2012, published 2014):
# pIC50: −log10 of the molar value. “Also recorded” adds a separate entry of the source.
# Tests used:
# HIV-1 (X4 NL4.3) = assay: HIV-1 sedimentation assay; details: 10 μM PD, 30 min, 37° C.
# HIV-1 92TH599 = assay: HIV infectivity assay in TZM-bl cells; assay type: cell-based; details: 92TH599 (clade B, X4); for pIC50: Human immunodeficiency virus 1, TZM-bl
# Sindbis virus (SINV) = assay: Sindbis virus plaque assay on BHK-J cells; assay type: cell-based; details: 300 μM PD
# VSV-Gpp, HIVpp = assay type: cell-based, HIV pseudotyped lentiviruses
# HCVcc [1] = test system: HCVcc; parameters: species or system HCV
# HIV-1 93BR020 = assay: HIV infectivity assay in TZM-bl cells; assay type: cell-based; details: 93BR020 (clade F, X4); for pIC50: Human immunodeficiency virus 1, TZM-bl
# VSV-Gpp [2] = assay type: physicochemical, HIV lentivirus pseudotyped with VSV-G
# HIV-1 93BR021 = assay: Anti-HIV efficacy in fresh human PBMC (reverse transcriptase activity); assay type: cell-based; details: Human immunodeficiency virus 1, PBMC, 168 h; 93BR021 (clade B, R5); PBMCs, MOI = 0.1, 7 days
# HIV-1 RU132 = assay: HIV infectivity assay in TZM-bl cells; assay type: cell-based; details: RU132 (clade G, R5); for pIC50: Human immunodeficiency virus 1, TZM-bl
# VSV-Gpp [3] = test system: VSV-Gpp
# HCVcc [4] = assay: HCVcc cell attachment assay; assay type: cell-based, HCV; details: 300 μM PD, 37° C., 90 min; cell-bound viral RNA by qRT-PCR
# HIV-1 98IN022 = assay: Anti-HIV efficacy in fresh human PBMC (reverse transcriptase activity); assay type: cell-based; details: Human immunodeficiency virus 1, PBMC, 168 h; 98IN022 (clade C, R5); PBMCs, MOI = 0.1, 7 days
# HIV-1 92HT599 = assay: as above; assay type: cell-based; details: Human immunodeficiency virus 1, PBMC, 168 h; 92HT599 (clade B, X4); PBMCs, MOI = 0.1, 7 days
# HIV-1 clinical isolates = assay: Anti-HIV efficacy in fresh human PBMC (all isolates, summary); assay type: cell-based; details: Human immunodeficiency virus 1, PBMC; eight HIV-1 clinical isolates in PBMCs
# HIV-1 92RW016 = assay: Anti-HIV efficacy in fresh human PBMC (reverse transcriptase activity); assay type: cell-based; details: Human immunodeficiency virus 1, PBMC, 168 h; 92RW016 (clade A, R5); PBMCs, MOI = 0.1, 7 days
# HIV-1 92UG005 = assay: HIV infectivity assay in TZM-bl cells; assay type: cell-based; details: 92UG005 (clade D, R5); for pIC50: Human immunodeficiency virus 1, TZM-bl
# HIV-1 92TH006 = assay: HIV infectivity assay in TZM-bl cells; assay type: cell-based; details: 92TH006 (clade E, R5); for pIC50: Human immunodeficiency virus 1, TZM-bl
# [5] = test system: pseudotyped NL4.3 Env-eGFP/gp160 Env virus; assay: HIV-1 cell-to-cell transfer assay (DC to Jurkat T cells); assay type: cell-based; details: 10 μM PD added to DC 2 h after virus, washed after 2 h
# HIV-1 96USNG31 = assay: Anti-HIV efficacy in fresh human PBMC (reverse transcriptase activity); assay type: cell-based; details: Human immunodeficiency virus 1, PBMC, 168 h; 96USNG31 (clade C, X4/R5); PBMCs, MOI = 0.1, 7 days
# HIV-1 Jv1083 = assay: HIV infectivity assay in TZM-bl cells; assay type: cell-based; details: Jv1083 (clade G, R5); for pIC50: Human immunodeficiency virus 1, TZM-bl
# HIV-1 92RW021 = assay: HIV infectivity assay in TZM-bl cells; assay type: cell-based; details: 92RW021 (clade A, R5); for pIC50: Human immunodeficiency virus 1, TZM-bl
# SIVsyk1.2 = assay: SIV infectivity assay in TZM-bl cells; assay type: cell-based; details: Simian immunodeficiency virus, first value cell of the line (cells shifted; presumably DMEM)
# HIV-1 92UG001 = assay: Anti-HIV efficacy in fresh human PBMC (reverse transcriptase activity); assay type: cell-based; details: Human immunodeficiency virus 1, PBMC, 168 h; 92UG001 (clade D, X4/R5); PBMCs, MOI = 0.1, 7 days
compound,measurement,setting,value
"N=C1Sc2ccccc2C2=NCCCN12 [PD, PD 404,182]",sedimentation of HIV capsid and RT in sucrose gradient,HIV-1 (X4 NL4.3),viral capsid and RT relocate to the top of the gradient
same,IC50 (DMEM; IC90 per footnote),HIV-1 92TH599; PD in DMEM + 10% FBS,5900 ± 300 nM
same,IC50 (Cervical Fluid; IC90 per footnote),HIV-1 92TH599; PD in cervical fluids,6400 ± 500 nM
same,IC50 (Seminal Plasma; IC90 per footnote),HIV-1 92TH599; PD in seminal plasma,6310 ± 520 nM
same,pIC50,HIV-1 92TH599; PD in DMEM + 10% FBS,5.74
same,pIC50,HIV-1 92TH599; PD in cervical fluids,5.66
same,pIC50,HIV-1 92TH599; PD in seminal plasma,5.71
same,effect on infectivity of SINV,Sindbis virus (SINV),no significant inhibitory effect
same,increase in IC50,"VSV-Gpp, HIVpp",50-80 fold
same,HCVcc virion lysis,HCVcc [1],27%
same,IC90,HIV-1 93BR020; PD in DMEM + 10% FBS,6900 ± 400 nM
same,IC90,HIV-1 93BR020; PD in cervical fluids,7500 ± 400 nM
same,IC90,HIV-1 93BR020; PD in seminal plasma,7190 ± 620 nM
same,pIC50,HIV-1 93BR020; PD in DMEM + 10% FBS,5.85
same,pIC50,HIV-1 93BR020; PD in cervical fluids,5.72
same,pIC50,HIV-1 93BR020; PD in seminal plasma,5.79
same,long-term stability (antiviral potency),VSV-Gpp [2]; pH 4,retains full antiviral potency; also recorded: retains its full potency
same,long-term stability,VSV-Gpp [2]; pH 7,stable only at room temperature and 4 °C; also recorded: significantly compromised PD activity after 2 weeks
same,stability in HEC gel,VSV-Gpp [2]; pH 7,not stable
same,pIC50,HIV-1 93BR021,6.22
same,IC90,HIV-1 93BR021,4260 nM
same,pIC50,HIV-1 RU132; PD in DMEM + 10% FBS,6.15
same,pIC50,HIV-1 RU132; PD in cervical fluids,6.05
same,pIC50,HIV-1 RU132; PD in seminal plasma,6.13
same,IC90,HIV-1 RU132; PD in DMEM + 10% FBS,3100 ± 200 nM
same,IC90,HIV-1 RU132; PD in cervical fluids,3900 ± 500 nM
same,IC90,HIV-1 RU132; PD in seminal plasma,3280 ± 220 nM
same,activity loss in cervical fluid,VSV-Gpp [3],no activity loss
same,attachment of PD-treated HCVcc to cells,HCVcc [4],binds to cells comparably to control DMSO-treated virus
same,pIC50,HIV-1 98IN022,6.40
same,IC90,HIV-1 98IN022,1480 nM
same,pIC50,HIV-1 92HT599,6.26
same,IC90,HIV-1 92HT599,1920 nM
same,pIC50,HIV-1 clinical isolates,6.26
same,pIC50,HIV-1 92RW016,6.66
same,IC90,HIV-1 92RW016,540 nM
same,IC50 (DMEM; IC90 per footnote),HIV-1 92UG005; PD in DMEM + 10% FBS,5300 ± 400 nM
same,IC50 (Cervical Fluid; IC90 per footnote),HIV-1 92UG005; PD in cervical fluids,5700 ± 300 nM
same,IC50 (Seminal Plasma; IC90 per footnote),HIV-1 92UG005; PD in seminal plasma,5570 ± 440 nM
same,pIC50,HIV-1 92UG005; PD in DMEM + 10% FBS,5.90
same,pIC50,HIV-1 92UG005; PD in cervical fluids,5.86
same,pIC50,HIV-1 92UG005; PD in seminal plasma,5.88
same,IC50 (DMEM; IC90 per footnote),HIV-1 92TH006; PD in DMEM + 10% FBS,6600 ± 400 nM
same,IC50 (Cervical Fluid; IC90 per footnote),HIV-1 92TH006; PD in cervical fluids,7600 ± 600 nM
same,IC50 (Seminal Plasma; IC90 per footnote),HIV-1 92TH006; PD in seminal plasma,6730 ± 510 nM
same,pIC50,HIV-1 92TH006; PD in DMEM + 10% FBS,5.74
same,pIC50,HIV-1 92TH006; PD in cervical fluids,5.64
same,pIC50,HIV-1 92TH006; PD in seminal plasma,5.71
same,DC-mediated transmission of HIV-1 to T cells,[5],prevents subsequent T cell infection with the pseudotyped virus
same,pIC50,HIV-1 96USNG31,6.85
same,IC90,HIV-1 96USNG31,1620 nM
same,pIC50,HIV-1 Jv1083; PD in DMEM + 10% FBS,5.96
same,pIC50,HIV-1 Jv1083; PD in cervical fluids,5.82
same,pIC50,HIV-1 Jv1083; PD in seminal plasma,5.90
same,IC90,HIV-1 Jv1083; PD in DMEM + 10% FBS,3900 ± 300 nM
same,IC90,HIV-1 Jv1083; PD in cervical fluids,4700 ± 100 nM
same,IC90,HIV-1 Jv1083; PD in seminal plasma,4220 ± 390 nM
same,IC90,HIV-1 92RW021; PD in DMEM + 10% FBS,3800 ± 300 nM
same,IC90,HIV-1 92RW021; PD in cervical fluids,4400 ± 200 nM
same,IC90,HIV-1 92RW021; PD in seminal plasma,4620 ± 320 nM
same,pIC50,HIV-1 92RW021; PD in DMEM + 10% FBS,6.37
same,pIC50,HIV-1 92RW021; PD in cervical fluids,6.17
same,pIC50,HIV-1 92RW021; PD in seminal plasma,6.24
same,pIC50,SIVsyk1.2,5.72
same,pIC50,HIV-1 92UG001,5.95
same,IC90,HIV-1 92UG001,1890 nM
